# Reference: ChEMBL document CHEMBL3137667, “[Drug-induced liver injury; fourteenth updated edition of the bibliographic database of liver injuries and related drugs]” (Gastroenterol Clin Biol, 2004)
# Key:
# [1] = human, serum, 4383 h
# [2] = human
# [3] = Highest frequency of acute liver toxicity observed during clinical trials, expressed as a percentage. [column '% AIGUE' in source]; details: human
# [4] = Times to onset, minimal and maximal, observed in the indexed observations. [column 'DELAI' in source]; details: human
# [5] = human; remark: listed apart in the source
# [6] = human; remark: listed apart in the source
# [7] = human, serum
# [8] = human; remark: listed apart in the source
# [9] = human; remark: listed apart in the source
# [10] = human, serum; remark: listed apart in the source
# [11] = human; remark: listed apart in the source
# [12] = human; remark: listed apart in the source
# [13] = human; remark: listed apart in the source
# [14] = human; remark: listed apart in the source
# [15] = Highest frequency of moderate liver toxicity observed during clinical trials, expressed as a percentage. [column '% BIOL' in source]; details: human
# 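Throughout, for Hepatotoxicity (association with vascular disease): count of indexed literature references reporting vascular liver injury in humans, e.g. peliosis hepatitis, hepatic veno-occlusive disease or Budd-Chiari syndrome.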
# 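Throughout, for Hepatotoxicity (benign tumour): value is a count of indexed literature references citing a benign tumour confirmed by histopathology.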
# 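Throughout, for Hepatotoxicity (choleostasis): human cholestatic liver injury, shown by histopathology or by peak ALT or AST elevation over alkaline phosphatase ratio below 2, value counts indexed literature reports.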
# 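Throughout, for Hepatotoxicity (chronic liver disease): chronic liver injury confirmed by histopathology or persistently raised serum aminotransferase activity beyond 6 months, value given as the count of indexed literature references.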
# 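Throughout, for Hepatotoxicity (cirrhosis): value is a count of indexed literature references reporting cirrhosis confirmed by histopathology.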
# 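Throughout, for Hepatotoxicity (cytolytic): human cytolytic liver injury, shown by histopathology or by a ratio above 5 of peak ALT or AST elevation to alkaline phosphatase elevation, value counts indexed references.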
# 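Throughout, for Hepatotoxicity (granulomatous hepatitis): value is a count of indexed literature references reporting granulomatous liver disease confirmed by histopathology.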
# 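Throughout, for Hepatotoxicity (malignant tumour): malignant tumour confirmed by histopathology, value gives the count of indexed literature references reporting it.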
# 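Throughout, for Hepatotoxicity (severe hepatitis): human clinical data: severe hepatitis, meaning potentially life-threatening liver failure or clinically observed cases, the value counts how many indexed literature references report it.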
# 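Throughout, for Hepatotoxicity (steatosis): steatosis confirmed by histopathology, value is the count of indexed references.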
SMILES,Hepatotoxicity (chronic liver disease) [1],Hepatotoxicity (malignant tumour) [2],Hepatotoxicity (acute) [3],Hepatotoxicity (time to onset) [4],Hepatotoxicity (benign tumour) [5],Hepatotoxicity (steatosis) [6],Hepatotoxicity (acute) [7],Hepatotoxicity (association with vascular disease) [8],Hepatotoxicity (granulomatous hepatitis) [9],Hepatotoxicity (moderate) [10],Hepatotoxicity (cytolytic) [11],Hepatotoxicity (severe hepatitis) [12],Hepatotoxicity (cirrhosis) [13],Hepatotoxicity (choleostasis) [14],Hepatotoxicity (moderate) [15]
N#C[C@H](O[C@@H]1O[C@H](CO[C@@H]2O[C@H](CO)[C@@H](O)[C@H](O)[C@H]2O)[C@@H](O)[C@H](O)[C@H]1O)c1ccccc1 [AMYGDALIN],0,0,0%,2 days,0,0,0,0,0,0,0,1,0,0,0%
Nc1ccc(C(=O)[O-])cc1.[K+] [AMINOBENZOATE POTASSIUM],0,0,0%,2 months,0,0,1,0,0,1,1,0,0,0,38%
CCC(Cc1c(I)cc(I)c(N)c1I)C(=O)O (stereo not given) [IOPANOIC ACID],0,0,0%,1 week,0,0,1,0,0,0,1,0,0,0,0%
C=CCC1(CC(C)C)C(=O)NC(=O)NC1=O [BUTALBITAL],0,0,0%,2.5 months,0,0,1,0,0,0,1,0,0,0,0%
CC(Cc1ccccc1)NCc1ccccc1Cl (stereo not given) [CLOBENZOREX],0,0,0%,2 weeks,0,0,1,0,0,0,1,0,0,0,0%
C=CC(N)CCC(=O)O (stereo not given) [VIGABATRIN],0,0,0%,9 months,0,0,2,0,0,3,2,1,0,0,13.3%
CS[C@H]1SC[C@H]2C(=O)N(C)[C@@H](C(C)C)C(=O)OC[C@@H](NC(=O)c3cnc4ccccc4n3)C(=O)N[C@@H](C)C(=O)N(C)[C@@H]1C(=O)N(C)[C@@H](C(C)C)C(=O)OC[C@@H](NC(=O)c1cnc3ccccc3n1)C(=O)N[C@@H](C)C(=O)N2C [ECHINOMYCIN],0,0,4.8%,4 days - 19 days,0,0,4,0,0,8,3,1,0,0,29.4%
CN1CCC(=C2c3ccccc3CCc3sccc32)CC1 [PIZOTYLINE],0,0,0%,12 days,0,0,1,0,0,0,0,0,0,1,0%
CC(O)(CS(=O)(=O)c1ccc(F)cc1)C(=O)Nc1ccc(C#N)c(C(F)(F)F)c1 (stereo not given) [BICALUTAMIDE],0,0,0%,2 days,0,0,1,0,0,1,1,1,0,0,6%
CN1CCOC(c2ccccc2)c2ccccc2C1 (stereo not given) [NEFOPAM],0,0,0%,4 weeks,0,0,0,0,0,1,0,0,0,0,14.3%
c1cnc(N2CCN(Cc3ccc4c(c3)OCO4)CC2)nc1 [PIRIBEDIL],0,0,0%,12 days - 2.5 months,0,0,0,0,0,2,0,0,0,0,10%
OC[C@H]1O[C@@H](n2cnc3c2NC=NC[C@H]3O)C[C@@H]1O [PENTOSTATIN],0,0,0%,1 day - 2 months,0,1,1,0,0,16,1,2,0,0,81.3%
CCn1cc(C(=O)O)c(=O)c2cc(F)c(N3CCNCC3)nc21 [ENOXACIN],0,0,0%,9 days,0,0,1,0,0,6,0,0,0,1,3.3%
S=P(N1CC1)(N1CC1)N1CC1 [THIOTEPA],0,0,5.3%,2 weeks,0,0,1,2,0,0,1,2,0,1,0%
O=C(O)Cc1sc(-c2ccccc2)nc1-c1ccc(Cl)cc1 [FENTIAZAC],0,0,6.1%,4 months - 5 months,0,0,2,0,0,3,1,0,0,0,35%
